Laboratory results published in patent publication US9968649B2, “Vasopressin formulations for use in treatment of hypotension” (Par Pharmaceutical, Inc., priority 2015, dated 2018).
Values joined by “and” are separate entries in the source; they are usually repeats but may differ in a detail not shown here. Identical values can stand only once.

Assay: Effect of temperature on vasopressin formulations: HPLC vasopressin assay and impurities on storage (Example 8)
Format: physicochemical
Experimental: To analyze degradation products of vasopressin that can be present in an illustrative formulation of vasopressin, gradient HPLC was performed to separate vasopressin from related peptides and formulation components. TABLE 2 below depicts the results of the experiment detailing the chemical formula, relative retention time (RRT), molar mass, and structure of vasopressin and detected impurities.
Vasopressin was detected in the eluent using UV absorbance. The concentration of vasopressin in the sample was determined by the external standard method, where the peak area of vasopressin in sample injections was compared to the peak area of vasopressin reference standards in a solution of known concentration. The concentrations of related peptide impurities in the sample were also determined using the external standard method, using the vasopressin reference standard peak area and a unit relative response factor. An impurities marker solution was used to determine the relative retention times of identified related peptides at the time of analysis.
To test the effect of temperature on the stability of vasopressin formulation, solutions containing 20 units/mL vasopressin and chlorobutanol, adjusted to pH 3.5 with acetic acid, were prepared. One mL of each vasopressin formulations was then filled into 3 cc vials. Each Vasopressin Formulation was stored either inverted or upright for at least three months, up to 24 months, at: (i) 5° C.; (ii) 25° C. and 60% relative humidity; or (iii) 40° C. and 75% humidity, and the amount of vasopressin (U/mL) and % total impurities were measured periodically. TABLES 7-12 below display the results of the experiments at 5° C. The results of the experiments at 25° C. are included in TABLES 13-18. All of the experiments were performed in triplicate. The results of the experiments at 40° C. are included in TABLES 19-24. For each temperature tested, three lots of the vasopressin formulation were stored for 24 months (5° C. and 25° C.) and 3 months (40° C.), and measurements were taken at regular intervals during the testing periods. “NMT” as used in the tables denotes “not more than.”
Experiments were also conducted on the same samples above over the course of the experiments to measure the amount of individual impurities in the samples, pH of the samples, chlorobutanol content, particulate matter, antimicrobial effectiveness, and bacterial endotoxin levels (TABLES 25-42). (NR=no reading; ND=not determined; UI=unidentified impurity).

[1] = Upright, 40° C. (75% humidity), 1 month
[2] = Upright, 40° C. (75% humidity), 2 months
[3] = Upright, 40° C. (75% humidity), 3 months
[4] = Upright, 40° C. (75% humidity), Initial
[5] = inverted, 5° C., 1 month, listed as AVP
[6] = inverted, 5° C., 2 months, listed as AVP
[7] = inverted, 5° C., 3 months, listed as AVP
[8] = inverted, 5° C., 6 months, listed as AVP
[9] = inverted, 5° C., 9 months, listed as AVP
[10] = inverted, 5° C., 12 months, listed as AVP
[11] = inverted, 5° C., 18 months, listed as AVP
[12] = inverted, 5° C., 24 months, listed as AVP

NC(=O)CC[C@@H]1NC(=O)[C@H](Cc2ccccc2)NC(=O)[C@H](Cc2ccc(O)cc2)NC(=O)[C@@H](N)CSSC[C@@H](C(=O)N2CCC[C@H]2C(=O)N[C@@H](CCCN=C(N)N)C(=O)NCC(N)=O)NC(=O)[C@H](CC(N)=O)NC1=O [Vasopressin, Cyclo (1-6) L-Cysteinyl-L-Tyrosyl-L-Phenylalanyl-L-Glutaminyl-L-Asparaginyl-L-Cysteinyl-L-Prolyl-L-Arginyl-L-Glycinamide]
effect of upright or inverted storage position on stability: did not markedly affect the stability
Total Impurities [1]: 3.6% and 3.5%
Vasopressin Assay [1]: 18.9 U/mL and 19.2 U/mL
Total Impurities [2]: 7.2%
Vasopressin Assay [2]: 18.5 U/mL and 18.7 U/mL and 18.3 U/mL
Total Impurities [3]: 10.3%
Vasopressin Assay [3]: 17.2 U/mL and 17.4 U/mL and 17.5 U/mL
Total Impurities [4]: 1.1% and 1.3%
Vasopressin Assay [4]: 19.8 U/mL and 20.1 U/mL and 19.9 U/mL
Related Substances: Acetyl-AVP (inverted, 5° C., 1 month): 0.2% and 0.3%
Related Substances: Asp5-AVP (inverted, 5° C., 1 month): 0.1%
Related Substances: SEQ ID NO.: 2 (inverted, 5° C., 1 month): 0.5%
Related Substances: SEQ ID NO.: 4 (inverted, 5° C., 1 month): 0.6% and 0.5%
Related Substances: SEQ ID NO.: 10 (inverted, 5° C., 1 month): 0.3%
Related Substances: UI-0.75-0.78 (inverted, 5° C., 1 month): 0.2%
Related Substances: UI-0.83-0.84 (inverted, 5° C., 1 month): 0.1%
Related Substances: UI-1.02-1.03 (inverted, 5° C., 1 month): 0.2%
Related Substances: UI-1.03 (inverted, 5° C., 1 month): 0.2%
Vasopressin (AVP) Assay (inverted, 5° C., 1 month): 19.4 U/mL and 19.7 U/mL
Total Impurities [5]: 2.0% and 2.2% and 1.9%
Vasopressin (AVP) Assay [5]: 19.4 U/mL and 19.7 U/mL
Related Substances: Acetyl-AVP (inverted, 5° C., 2 months): 0.3%
Related Substances: Asp5-AVP (inverted, 5° C., 2 months): 0.1%
Related Substances: SEQ ID NO.: 2 (inverted, 5° C., 2 months): 0.6% and 0.5%
Related Substances: SEQ ID NO.: 4 (inverted, 5° C., 2 months): 0.6% and 0.5%
Related Substances: SEQ ID NO.: 10 (inverted, 5° C., 2 months): 0.3%
Related Substances: UI-0.75-0.78 (inverted, 5° C., 2 months): 0.2%
Related Substances: UI-0.83-0.84 (inverted, 5° C., 2 months): 0.1%
Related Substances: UI-0.84 (inverted, 5° C., 2 months): 0.1%
Related Substances: UI-1.02-1.03 (inverted, 5° C., 2 months): 0.2%
Related Substances: UI-1.03 (inverted, 5° C., 2 months): 0.2%
Related Substances: UI-2.05 (inverted, 5° C., 2 months): 0.1%
Vasopressin (AVP) Assay (inverted, 5° C., 2 months): 19.4 U/mL and 19.7 U/mL and 19.6 U/mL
Total Impurities [6]: 2.1% and 2.3% and 2.0%
Vasopressin (AVP) Assay [6]: 19.4 U/mL and 19.7 U/mL and 19.6 U/mL
Related Substances: Acetyl-AVP (inverted, 5° C., 3 months): 0.3%
Related Substances: Asp5-AVP (inverted, 5° C., 3 months): 0.1%
Related Substances: SEQ ID NO.: 2 (inverted, 5° C., 3 months): 0.6% and 0.5%
Related Substances: SEQ ID NO.: 4 (inverted, 5° C., 3 months): 0.7% and 0.6%
Related Substances: SEQ ID NO.: 10 (inverted, 5° C., 3 months): 0.4%
Related Substances: UI-0.75-0.78 (inverted, 5° C., 3 months): 0.2%
Related Substances: UI-1.02-1.03 (inverted, 5° C., 3 months): 0.3%
Related Substances: UI-1.03 (inverted, 5° C., 3 months): 0.3%
Related Substances: UI-1.76 (inverted, 5° C., 3 months): 0.1%
Vasopressin (AVP) Assay (inverted, 5° C., 3 months): 19.3 U/mL and 19.7 U/mL
Total Impurities [7]: 2.3% and 2.4% and 2.2%
Vasopressin (AVP) Assay [7]: 19.3 U/mL and 19.7 U/mL
Related Substances: Acetyl-AVP (inverted, 5° C., 6 months): 0.2% and 0.3%
Related Substances: Asp5-AVP (inverted, 5° C., 6 months): 0.1%
Related Substances: SEQ ID NO.: 2 (inverted, 5° C., 6 months): 0.6% and 0.5%
Related Substances: SEQ ID NO.: 4 (inverted, 5° C., 6 months): 0.7% and 0.6%
Related Substances: SEQ ID NO.: 10 (inverted, 5° C., 6 months): 0.3%
Related Substances: UI-0.83-0.84 (inverted, 5° C., 6 months): 0.1%
Related Substances: UI-1.02-1.03 (inverted, 5° C., 6 months): 0.2%
Related Substances: UI-1.03 (inverted, 5° C., 6 months): 0.2%
Vasopressin (AVP) Assay (inverted, 5° C., 6 months): 19.5 U/mL and 19.9 U/mL and 19.8 U/mL
Total Impurities [8]: 2.2% and 2.1% and 2.0%
Vasopressin (AVP) Assay [8]: 19.5 U/mL and 19.9 U/mL and 19.8 U/mL
Related Substances: Acetyl-AVP (inverted, 5° C., 9 months): 0.2% and 0.3%
Related Substances: Asp5-AVP (inverted, 5° C., 9 months): 0.1%
Related Substances: SEQ ID NO.: 2 (inverted, 5° C., 9 months): 0.6%
Related Substances: SEQ ID NO.: 4 (inverted, 5° C., 9 months): 0.7%
Related Substances: SEQ ID NO.: 10 (inverted, 5° C., 9 months): 0.3%
Related Substances: UI-0.75-0.78 (inverted, 5° C., 9 months): 0.1%
Related Substances: UI-1.02-1.03 (inverted, 5° C., 9 months): 0.2%
Related Substances: UI-1.03 (inverted, 5° C., 9 months): 0.2%
Vasopressin (AVP) Assay (inverted, 5° C., 9 months): 19.4 U/mL and 19.7 U/mL
Total Impurities [9]: 2.3% and 2.1%
Vasopressin (AVP) Assay [9]: 19.4 U/mL and 19.7 U/mL
Related Substances: Acetyl-AVP (inverted, 5° C., 12 months): 0.3%
Related Substances: Asp5-AVP (inverted, 5° C., 12 months): 0.2% and 0.1%
Related Substances: SEQ ID NO.: 2 (inverted, 5° C., 12 months): 0.7% and 0.6%
Related Substances: SEQ ID NO.: 4 (inverted, 5° C., 12 months): 0.8% and 0.7%
Related Substances: SEQ ID NO.: 10 (inverted, 5° C., 12 months): 0.4%
Related Substances: UI-0.75-0.78 (inverted, 5° C., 12 months): 0.2%
Related Substances: UI-1.02-1.03 (inverted, 5° C., 12 months): 0.3%
Related Substances: UI-1.03 (inverted, 5° C., 12 months): 0.3%
Vasopressin (AVP) Assay (inverted, 5° C., 12 months): 19.5 U/mL and 19.8 U/mL and 19.9 U/mL
Total Impurities [10]: 2.6% and 2.7% and 2.4%
Vasopressin (AVP) Assay [10]: 19.5 U/mL and 19.8 U/mL and 19.9 U/mL
Related Substances: Acetyl-AVP (inverted, 5° C., 18 months): 0.3%
Related Substances: Asp5-AVP (inverted, 5° C., 18 months): 0.2%
Related Substances: SEQ ID NO.: 2 (inverted, 5° C., 18 months): 0.8%
Related Substances: SEQ ID NO.: 4 (inverted, 5° C., 18 months): 0.9% and 0.8%
Related Substances: SEQ ID NO.: 10 (inverted, 5° C., 18 months): 0.4%
Related Substances: UI-0.75-0.78 (inverted, 5° C., 18 months): 0.2%
Related Substances: UI-1.02-1.03 (inverted, 5° C., 18 months): 0.3%
Related Substances: UI-1.03 (inverted, 5° C., 18 months): 0.3%
Vasopressin (AVP) Assay (inverted, 5° C., 18 months): 19.4 U/mL and 19.7 U/mL and 19.8 U/mL
Total Impurities [11]: 2.9% and 2.6%
Vasopressin (AVP) Assay [11]: 19.4 U/mL and 19.7 U/mL and 19.8 U/mL
Related Substances: Acetyl-AVP (inverted, 5° C., 24 months): 0.3%
Related Substances: Asp5-AVP (inverted, 5° C., 24 months): 0.2%
Related Substances: SEQ ID NO.: 2 (inverted, 5° C., 24 months): 0.9% and 0.8%
Related Substances: SEQ ID NO.: 4 (inverted, 5° C., 24 months): 1.0% and 0.9%
Related Substances: SEQ ID NO.: 10 (inverted, 5° C., 24 months): 0.3%
Related Substances: UI-0.75-0.78 (inverted, 5° C., 24 months): 0.2%
Related Substances: UI-0.83-0.84 (inverted, 5° C., 24 months): 0.1%
Related Substances: UI-1.02-1.03 (inverted, 5° C., 24 months): 0.3% and 0.2%
Related Substances: UI-1.03 (inverted, 5° C., 24 months): 0.2%
Related Substances: UI-1.67 (inverted, 5° C., 24 months): 0.2%
Vasopressin (AVP) Assay (inverted, 5° C., 24 months): 19.3 U/mL and 19.5 U/mL
Total Impurities [12]: 2.9% and 2.8%
Vasopressin (AVP) Assay [12]: 19.3 U/mL and 19.5 U/mL
